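48-hour exposure; five concentrations; linearly interpolated endpoints. GI50 is the concentration that inhibits growth by half.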 Active and inactive are the calls of the source. Cut-off read from the data, not from the text of the source: active = GI50 up to about 1.1 µM and inactive = higher.
How the values were obtained:
Test in all cases: NCI-60 cell line screen, 48 h
[1] = system: U-251
[2] = system: MDA-N
[3] = system: SF-268
[4] = system: SK-OV-3
[5] = system: M14
[6] = system: TK-10
[7] = system: SNB-75
[8] = system: OVCAR-5
[9] = system: OVCAR-3
[10] = system: SNB-19
[11] = system: NCI-H23
[12] = system: A549
[13] = system: HT-29
[14] = system: HCT-116
[15] = system: OVCAR-4
[16] = system: CCRF-CEM
[17] = system: SK-MEL-5
[18] = system: UACC-62
[19] = system: SW-620
[20] = system: PC-3
[21] = system: HOP-92
[22] = system: NCI-H226
[23] = system: SK-MEL-28
[24] = system: MCF7
[25] = system: NCI-H522
[26] = system: SN12C
[27] = system: K562
[28] = system: 786-0
[29] = system: EKVX
[30] = system: MDA-MB-435
[31] = system: HCC 2998
[32] = system: T47D
[33] = system: NCI-H460
[34] = system: A498
[35] = system: ACHN
[36] = system: DU-145
[37] = system: COLO 205
[38] = system: BT-549
[39] = system: LOX IMVI
[40] = system: SK-MEL-2
[41] = system: SF-295
[42] = system: HL-60
[43] = system: RPMI-8226
[44] = system: HOP-62
[45] = system: MDA-MB-231
[46] = system: IGROV-1
[47] = system: CAKI-1
[48] = system: OVCAR-8
[49] = system: MOLT-4
[50] = system: Malme-3M
[51] = system: UO-31
[52] = system: SF-539
[53] = system: RXF 393
[54] = system: UACC-257
[55] = system: KM12
[56] = system: Hs-578T
[57] = system: HCT-15
[58] = system: NCI/ADR-RES

COc1ccc(/C(Nc2ccccc2)=C(\CCl)c2ccccc2)cc1OC
GI50 [1]: 6.53 µM (inactive) | GI50 [2]: 35.7 µM (inactive) | GI50 [3]: 97.1 µM (inactive) | GI50 [4]: > 100 µM (inactive) | GI50 [5]: 41.4 µM (inactive) | GI50 [6]: 41.5 µM (inactive) | GI50 [7]: 63.2 µM (inactive) | GI50 [8]: > 100 µM (inactive) | GI50 [9]: 35.7 µM (inactive) | GI50 [10]: > 100 µM (inactive) | GI50 [11]: 45.9 µM (inactive) | GI50 [12]: 44.6 µM (inactive) | GI50 [13]: 34.9 µM (inactive) | GI50 [14]: 17.7 µM (inactive) | GI50 [15]: 35.7 µM (inactive) | GI50 [16]: 17.3 µM (inactive) | GI50 [17]: 22.2 µM (inactive) | GI50 [18]: 99.1 µM (inactive) | GI50 [19]: 46.2 µM (inactive) | GI50 [20]: 39.4 µM (inactive) | GI50 [21]: 37.6 µM (inactive) | GI50 [22]: 30.9 µM (inactive) | GI50 [23]: 82 µM (inactive) | GI50 [24]: 26.4 µM (inactive) | GI50 [25]: 16.7 µM (inactive) | GI50 [26]: 36.7 µM (inactive) | GI50 [27]: 15.7 µM (inactive) | GI50 [28]: 55.8 µM (inactive) | GI50 [29]: 24.3 µM (inactive) | GI50 [30]: 32.8 µM (inactive) | GI50 [31]: 48.1 µM (inactive) | GI50 [32]: 35.5 µM (inactive) | GI50 [33]: 41.8 µM (inactive) | GI50 [34]: > 100 µM (inactive) | GI50 [35]: 31.9 µM (inactive) | GI50 [36]: 86.3 µM (inactive) | GI50 [37]: 71.6 µM (inactive) | GI50 [38]: 33.2 µM (inactive) | GI50 [39]: 10.1 µM (inactive) | GI50 [40]: 24.1 µM (inactive) | GI50 [41]: 49.2 µM (inactive) | GI50 [42]: 18.9 µM (inactive) | GI50 [43]: 21.2 µM (inactive) | GI50 [44]: > 100 µM (inactive) | GI50 [45]: 50.4 µM (inactive) | GI50 [46]: > 100 µM (inactive) | GI50 [47]: > 100 µM (inactive) | GI50 [48]: 35.2 µM (inactive) | GI50 [49]: 29.6 µM (inactive) | GI50 [50]: 37.2 µM (inactive) | GI50 [51]: 37.2 µM (inactive) | GI50 [52]: > 100 µM (inactive) | GI50 [53]: 83.8 µM (inactive) | GI50 [54]: 29.2 µM (inactive) | GI50 [55]: 57.1 µM (inactive) | GI50 [56]: > 100 µM (inactive) | GI50 [57]: 40.7 µM | GI50 [58]: 32.1 µM (inactive)

Reference: ChEMBL document CHEMBL1201862, “PubChem BioAssay data set” (2004)
